Biological target: T1, b-Raf (Homo sapiens, UniProt P15056, V600E)
T1 construct: endogenous in cells; host or cells: A2058 human melanoma cells
Experiment: Raf cellular assay (phospho-Mek1/2 ELISA in A2058 cells)
Type: cell-based
Settings: Table 3; human melanoma A2058 cells (b-Raf mutation), Mek1/2 Ser217/221 phosphorylation, 1 hour incubation; read-out: pMEK IC50
Summary of the method: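 A2058 melanoma cells (B-Raf mutant), seeded overnight in 10% FBS DMEM, were exposed to compounds (11-point 1:3 series, duplicate) for 1 h at 37 °C. Lysates were captured on anti-Mek1-coated plates and Mek1/2 Ser217/221 phosphorylation was read by anti-phospho-Mek1/2 ELISA, HRP/TMB, 450 nm.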

T1 sequence (P15056 whole entry V600E): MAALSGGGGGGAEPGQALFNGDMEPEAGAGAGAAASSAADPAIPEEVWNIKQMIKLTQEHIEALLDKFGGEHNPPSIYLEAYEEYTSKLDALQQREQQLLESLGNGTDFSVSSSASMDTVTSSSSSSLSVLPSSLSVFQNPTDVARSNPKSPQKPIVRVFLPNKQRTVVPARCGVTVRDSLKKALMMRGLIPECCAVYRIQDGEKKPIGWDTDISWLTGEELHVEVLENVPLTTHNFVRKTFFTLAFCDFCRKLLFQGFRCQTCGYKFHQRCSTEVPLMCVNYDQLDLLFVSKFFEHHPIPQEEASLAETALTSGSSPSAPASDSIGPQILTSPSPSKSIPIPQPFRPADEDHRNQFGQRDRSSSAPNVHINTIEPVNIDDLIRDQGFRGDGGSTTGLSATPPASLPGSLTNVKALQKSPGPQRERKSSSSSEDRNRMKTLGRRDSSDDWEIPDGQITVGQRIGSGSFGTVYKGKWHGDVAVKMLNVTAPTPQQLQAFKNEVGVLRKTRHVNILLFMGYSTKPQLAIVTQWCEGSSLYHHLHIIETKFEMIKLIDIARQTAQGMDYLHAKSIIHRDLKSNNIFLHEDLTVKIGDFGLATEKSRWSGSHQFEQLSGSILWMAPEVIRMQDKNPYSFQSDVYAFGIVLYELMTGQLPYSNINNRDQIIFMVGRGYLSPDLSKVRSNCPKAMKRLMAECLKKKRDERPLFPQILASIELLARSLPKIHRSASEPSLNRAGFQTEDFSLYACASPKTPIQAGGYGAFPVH

Row | IC50 | SMILES
1 | 0.627 nM | COc1cc(-c2nn(CC(F)F)cc2-c2ccnc(NCCC#N)n2)cnc1N [Example B-82, 3-(4-(3-(6-amino-5-methoxypyridin-3-yl)-1-(2,2-difluoroethyl)-1H-pyrazol-4-yl)pyrimidin-2-ylamino)propanenitrile]
2 | 18.7 nM | C[C@H](O)CNc1nccc(-c2cn([C@H]3C[C@@H](F)C3)nc2-c2cnc3[nH]cc(Cl)c3c2)n1 [Example B-84, (S)-1-(4-(3-(3-chloro-1H-pyrrolo[2,3-b]pyridin-5-yl)-1-((1s,3s)-3-fluorocyclobutyl)-1H-pyrazol-4-yl)pyrimidin-2-ylamino)propan-2-ol]
3 | 21.9 nM | COc1cc(-c2nn([C@H]3C[C@H](F)C3)cc2-c2ccnc(NC[C@H](C)O)n2)cnc1N [Example B-85, (S)-1-(4-(3-(6-amino-5-methoxypyridin-3-yl)-1-((1r,3r)-3-fluorocyclobutyl)-1H-pyrazol-4-yl)pyrimidin-2-ylamino)propan-2-ol]
4 | 30.6 nM | C[C@H](O)CNc1nccc(-c2cn([C@H]3C[C@H](F)C3)nc2-c2cnc3[nH]cc(Cl)c3c2)n1 [Example B-86, (S)-1-(4-(3-(3-chloro-1H-pyrrolo[2,3-b]pyridin-5-yl)-1-((1r,3r)-3-fluorocyclobutyl)-1H-pyrazol-4-yl)pyrimidin-2-ylamino)propan-2-ol]
5 | 510 nM | CC1CNc2ncc(-c3nn(CC(F)F)cc3-c3ccnc(NC[C@H](C)O)n3)cc21 (stereo partly drawn) [Example B-87, (2S)-1-(4-(1-(2,2-difluoroethyl)-3-(3-methyl-2,3-dihydro-1H-pyrrolo[2,3-b]pyridin-5-yl)-1H-pyrazol-4-yl)pyrimidin-2-ylamino)propan-2-ol]
6 | 6.93 nM | N#CCCNc1nccc(-c2cn(CC(F)F)nc2-c2cnc3c(c2)CCN3)n1 [Example B-88, 3-(4-(1-(2,2-difluoroethyl)-3-(2,3-dihydro-1H-pyrrolo[2,3-b]pyridin-5-yl)-1H-pyrazol-4-yl)pyrimidin-2-ylamino)propanenitrile]
7 | 284 nM | CC(C)(O)CNc1nccc(-c2cn(CC(F)F)nc2-c2cnc3c(c2)CCN3)n1 [Example B-89, 1-(4-(1-(2,2-difluoroethyl)-3-(2,3-dihydro-1H-pyrrolo[2,3-b]pyridin-5-yl)-1H-pyrazol-4-yl)pyrimidin-2-ylamino)-2-methylpropan-2-ol]
8 | 43.4 nM | FC(F)CNc1nccc(-c2cn(CC(F)F)nc2-c2cnc3c(c2)CCN3)n1 [Example B-90, N-(2,2-difluoroethyl)-4-(1-(2,2-difluoroethyl)-3-(2,3-dihydro-1H-pyrrolo[2,3-b]pyridin-5-yl)-1H-pyrazol-4-yl)pyrimidin-2-amine]
9 | 4.94 nM | Cc1n[nH]c2ncc(-c3nn(CC(F)F)cc3-c3ccnc(NCCC#N)n3)cc12 [Example B-91, 3-(4-(1-(2,2-difluoroethyl)-3-(3-methyl-1H-pyrazolo[3,4-b]pyridin-5-yl)-1H-pyrazol-4-yl)pyrimidin-2-ylamino)propanenitrile]
10 | 280 nM | C[C@H](O)CNc1nccc(-c2cn(CC(F)F)nc2-c2cnc3c(c2)[C@@H](C)CN3)n1 [Example B-92, (S)-1-(4-(1-(2,2-difluoroethyl)-3-((R)-3-methyl-2,3-dihydro-1H-pyrrolo[2,3-b]pyridin-5-yl)-1H-pyrazol-4-yl)pyrimidin-2-ylamino)propan-2-ol]
11 | 0.275 nM | Cc1c[nH]c2ncc(-c3nn(CC(F)F)cc3-c3ccnc(NCCC#N)n3)cc12 [Example B-93, 3-(4-(1-(2,2-difluoroethyl)-3-(3-methyl-1H-pyrrolo[2,3-b]pyridin-5-yl)-1H-pyrazol-4-yl)pyrimidin-2-ylamino)propanenitrile]
12 | 13.3 nM | Cc1n[nH]c2ncc(-c3nn(C(C)(C)CO)cc3-c3ccnc(NCCC#N)n3)cc12 [Example B-94, 3-(4-(1-(1-hydroxy-2-methylpropan-2-yl)-3-(3-methyl-1H-pyrazolo[3,4-b]pyridin-5-yl)-1H-pyrazol-4-yl)pyrimidin-2-ylamino)propanenitrile]
13 | 1670 nM | N#CCCNc1nccc(-c2cn(CC(F)F)nc2-c2cnc3c(c2)CC(=O)N3)n1 [Example B-95, 3-(4-(1-(2,2-difluoroethyl)-3-(2-oxo-2,3-dihydro-1H-pyrrolo[2,3-b]pyridin-5-yl)-1H-pyrazol-4-yl)-pyrimidin-2-ylamino)propanenitrile]
14 | 14.1 nM | C[C@H](O)CNc1nccc(-c2cn(CC(F)F)nc2-c2cnc3[nH]cc(Cl)c3c2)n1 [Example B-96, (2S)-1-({4-[3-(3-chloro-1H-pyrrolo[2,3-b]pyridin-5-yl)-1-(2,2-difluoroethyl)-1H-pyrazol-4-yl]pyrimidin-2-yl}amino)propan-2-ol]
15 | 174 nM | Cc1[nH]c2ncc(-c3nn(C(C)C)cc3-c3ccnc(NC[C@H](C)O)n3)cc2c1Cl [Example B-97, (2S)-1-({4-[3-(3-chloro-2-methyl-1H-pyrrolo[2,3-b]pyridin-5-yl)-1-isopropyl-1H-pyrazol-4-yl]pyrimidin-2-yl}amino)propan-2-ol]
16 | 146 nM | C[C@H](O)CNc1nccc(-c2cn(CC3(C)COC3)nc2-c2cnc3[nH]cc(Cl)c3c2)n1 [Example B-98, (2S)-1-[(4-{3-(3-chloro-1H-pyrrolo[2,3-b]pyridin-5-yl)-1-[(3-methyloxetan-3-yl)methyl]-1H-pyrazol-4-yl}pyrimidin-2-yl)amino]propan-2-ol]

Row | IC50 | SMILES
17 | 235 nM | C[C@H](O)CNc1nccc(-c2cn(C3COC3)nc2-c2cnc3[nH]cc(Cl)c3c2)n1 [Example B-99, (2S)-1-({4-[3-(3-chloro-1H-pyrrolo[2,3-b]pyridin-5-yl)-1-oxetan-3-yl-1H-pyrazol-4-yl]pyrimidin-2-yl}amino)propan-2-ol]
18 | 4.29 nM | Cc1c[nH]c2ncc(-c3nn(CC(F)F)cc3-c3ccnc(NC[C@H](C)O)n3)cc12 [Example B-100, (2S)-1-({4-[1-(2,2-difluoroethyl)-3-(3-methyl-1H-pyrrolo[2,3-b]pyridin-5-yl)-1H-pyrazol-4-yl]pyrimidin-2-yl}amino)propan-2-ol]
19 | 107 nM | C[C@H](O)CNc1nccc(-c2cn(CC(F)F)nc2-c2cnc3[nH]cc(F)c3c2)n1 [Example B-101, (2S)-1-({4-[1-(2,2-difluoroethyl)-3-(3-fluoro-1H-pyrrolo[2,3-b]pyridin-5-yl)-1H-pyrazol-4-yl]pyrimidin-2-yl}amino)propan-2-ol]
20 | 509 nM | C[C@H](O)CNc1nccc(-c2cn(CC(F)F)nc2-c2cnc3c(c2)CCN3)n1 [Example B-102, (2S)-1-({4-[1-(2,2-difluoroethyl)-3-(2,3-dihydro-1H-pyrrolo[2,3-b]pyridin-5-yl)-1H-pyrazol-4-yl]pyrimidin-2-yl}amino)propan-2-ol]
21 | 3800 nM | C[C@H](O)CNc1nccc(-c2cn(CC(F)F)nc2-c2cnc3[nH]cc(C#N)c3c2)n1 [Example B-103, 5-[1-(2,2-difluoroethyl)-4-(2-{[(2S)-2-hydroxypropyl]amino}pyrimidin-4-yl)-1H-pyrazol-3-yl]-1H-pyrrolo[2,3-b]pyridine-3-carbonitrile]
22 | 9.62 nM | COc1cc(-c2nn(CC(F)F)cc2-c2ccnc(NC[C@H](C)O)n2)cnc1N [Example B-104, (2S)-({4-[3-(6-amino-5-methoxypyridin-3-yl)-1-(2,2-difluoroethyl)-1H-pyrazol-4-yl]pyrimidin-2-yl}amino)propan-2-ol]
23 | 9.46 nM | Cc1c[nH]c2ncc(-c3nn(CC(F)F)cc3-c3ccnc(NCCO)n3)cc12 [Example B-105, 2-({4-[1-(2,2-difluoroethyl)-3-(3-methyl-1H-pyrrolo[2,3-b]pyridin-5-yl)-1H-pyrazol-4-yl]pyrimidin-2-yl}amino)ethanol]
24 | 10.5 nM | OCCNc1nccc(-c2cn(CC(F)F)nc2-c2cnc3[nH]cc(Cl)c3c2)n1 [Example B-106, 2-({4-[3-(3-chloro-1H-pyrrolo[2,3-b]pyridin-5-yl)-1-(2,2-difluoroethyl)-1H-pyrazol-4-yl]pyrimidin-2-yl}amino)ethanol]
25 | 8.06 nM | Nc1nccc(-c2cn(CC(F)F)nc2-c2cnc3[nH]cc(Cl)c3c2)n1 [Example B-107, 4-[3-(3-chloro-1H-pyrrolo[2,3-b]pyridin-5-yl)-1-(2,2-difluoroethyl)-1H-pyrazol-4-yl]pyrimidin-2-amine]
26 | 11.2 nM | Cc1c[nH]c2ncc(-c3nn(CC(F)F)cc3-c3ccnc(N)n3)cc12 [Example B-108, 4-[1-(2,2-difluoroethyl)-3-(3-methyl-1H-pyrrolo[2,3-b]pyridin-5-yl)-1H-pyrazol-4-yl]pyrimidin-2-amine]
27 | 144 nM | COCCCn1cc(-c2ccnc(NC[C@H](C)O)n2)c(-c2cnc3[nH]cc(Cl)c3c2)n1 [Example B-110, (2S)-1-({4-[3-(3-chloro-1H-pyrrolo[2,3-b]pyridin-5-yl)-1-(3-methoxypropyl)-1H-pyrazol-4-yl]pyrimidin-2-yl}amino)propan-2-ol]
28 | 6.13 nM | COc1cc(-c2nn(C(C)C)cc2-c2ccnc(NC[C@H](C)O)n2)cnc1N [Example B-111, (2S)-1-({4-[3-(6-amino-5-methoxypyridin-3-yl)-1-isopropyl-1H-pyrazol-4-yl]pyrimidin-2-yl}amino)propan-2-ol]
29 | 1.48 nM | Cc1c[nH]c2ncc(-c3nn(C4CCN(C)CC4)cc3-c3ccnc(NCC(F)F)n3)cc12 [Example B-113, N-(2,2-difluoroethyl)-4-[1-(1-methylpiperidin-4-yl)-3-(3-methyl-1H-pyrrolo[2,3-b]pyridin-5-yl)-1H-pyrazol-4-yl]pyrimidin-2-amine]
30 | 2.22 nM | CN1CCC(n2cc(-c3ccnc(NCC(F)F)n3)c(-c3cnc4[nH]cc(Cl)c4c3)n2)CC1 [Example B-114, 4-[3-(3-chloro-1H-pyrrolo[2,3-b]pyridin-5-yl)-1-(1-methylpiperidin-4-yl)-1H-pyrazol-4-yl]-N-(2,2-difluoroethyl)pyrimidin-2-amine]
31 | 1310 nM | COc1cc(-c2n[nH]cc2-c2ccnc(N)n2)cnc1N [Example C-2, 4-[3-(6-amino-5-methoxypyridin-3-yl)-1H-pyrazol-4-yl]pyrimidin-2-amine]
32 | 107 nM | N#CCCNc1nccc(-c2cn(CC(F)F)nc2-c2cnc3c(ccn3CCC#N)c2)n1 [Example D-15]

Source: patent publication US7772246B2 (Pfizer Inc., priority 2007, dated 2010)
